Experimental findings from PMC10683027, “Discovery of tert-Butyl Ester Based 6-Diazo-5-oxo-L-norleucine Prodrugs for Enhanced Metabolic Stability and Tumor Delivery” (Journal of Medicinal Chemistry, 2023) are described below.

Series [1] is described as follows: Full pharmacokinetic evaluation of P11 in EL4 tumor-bearing mice (intact prodrug and released DON). The note with it: P11 2.9 mg/kg SC, analyte intact P11. The series is classed as in vivo, C57BL/6/CES1–/– mice. Here is the method: C57BL/6/CES1^–/– mice were obtained as a gift from the United States Army Medical Research Institute of Chemical Defense, Maryland, USA; breeding was performed in the Johns Hopkins animal facility and was conducted according to protocols reviewed and approved by the Johns Hopkins Institutional Animal Care and Use Committee in compliance with the Association for Assessment and Accreditation of Laboratory Animal Care International (AAALAC) and the Public Health Service Policy on the Humane Care and Use of Laboratory Animals (PHS Policy). Male and female C57BL/6 mice (weighing between 25 and 30 g) 6–8 weeks of age were used for the study. The animals were maintained on a 12 h light–dark cycle with ad libitum access to food (certified laboratory food: Teklad 18% Protein Extruded Rodent Diet) and water. EL4 mouse lymphoma cells were obtained as a gift from the laboratory of Dr. Jonathan Powell (Johns Hopkins University, Baltimore, MD) and maintained in RPMI 1640 medium 1X (Corning, cat. no. 10-040-CV) with 10% (v/v) fetal bovine serum (Corning, cat. no. 35-011-CV), 1% (v/v) antimycotic/antibiotic (Corning, cat. no. 30-004-CI), 2 mM L-glutamine (Corning, cat. no. 25-005-CI), and 10 mM HEPES (Corning, cat. no. 25-060-CI) in a 5% (v/v) CO2 and 95% (v/v) air incubator prior to subcutaneous (SC) injection (1 × 10^6 cells in 0.2 mL of phosphate-buffered saline) on the flank of each mouse.
Pharmacokinetic study was performed after tumors grew to a mean volume of around 400 mm^3. […]
Plasma concentration levels of P11 were measured by precipitating 20 μL of plasma sample with 100 μL of methanol containing internal standard (losartan, 0.5 μM), followed by vortex mixing for 30 s and then centrifugation at 16000g for 5 min at 4 °C. […]
Chromatographic analysis was performed on an Agilent ultra-high-performance LC system coupled with an Agilent 6520 QTOF mass spectrometer (Agilent, Santa Clara, CA). […] P11 concentrations were determined by the AUC of high-resolution extracted chromatograms of P11 divided by internal standard (460.2554 m/z/423.1695 m/z). […]

The subject of series [2] is glutamine and FGAR in EL4 tumors. Description: Tumor target engagement: glutamine and FGAR quantification. It is filed as in vivo, C57BL/6/CES1–/– mice. The note with it: P11 2.9 mg/kg SC. On the procedure: Glutamine and FGAR were extracted from the tumor by protein precipitation. Per milligram of tissue, 5 μL of methanol containing 10 μmol/L deuterated N-acetyl aspartic acid and deuterated glutamate (internal standards) was added. Tissue samples were homogenized as described above and centrifuged (16000g, 5 min). Standard concentration curves of glutamine and FGAR in untreated plasma and tumor tissues were prepared (separately). For FGAR quantification, supernatants (2 μL) were injected and separated on an UltiMate 3000 UHPLC coupled to a Q Exactive Focus Orbitrap mass spectrometer. Samples were separated on an Agilent Eclipse Plus C18 RRHD (1.8 μm) 2.1 × 100 mm column. The mobile phase consisted of 8 mmol/L dimethylhexylamine (DMHA) + 0.005% formic acid in water, pH 9 (A), and 8 mmol/L DMHA in acetonitrile (B). […] Quantification was performed in full MS negative mode. Data were acquired and quantified with Xcalibur software.
Glutamine analysis took place on an Agilent 1290 UPLC coupled to an Agilent 6520 quadrupole time-of-flight mass spectrometer. Samples (2 μL) were injected and separated on a Waters Acquity UPLC BEH Amide 1.7 μm 2.1 × 100 mm HILIC column with a flow rate of 0.3 mL/min. The mobile phases consisted of A (water +0.1% formic acid) and B (acetonitrile + 0.1% formic acid). The mass spectrometer was run in positive ion mode. Standard curves for FGAR and glutamine were fitted using a blank subtraction method[47] to compensate for the presence of endogenous analyte levels in naïve matrixes.

Series [3] can be described thus: Aqueous solubility assay in PBS buffer (pH 7.4). It is filed as physicochemical. On the procedure: The aqueous solubility was determined as previously reported with minor modifications.[48] Briefly, an excess amount of P11 or DRP-104 was added to PBS buffer (pH 7.4) and sonicated for 1 h at 37 °C to ensure saturation. After 1 h, the solution was filtered (0.45 μm PTFE), and the filtrate was diluted appropriately, and the concentration of each analyte was determined via LC–MS. Chemical stabilities of DRP-104 and P11 were done as previously described[18] with modifications. For chemical stability, prodrugs were spiked (10 μM) in buffer at pH 7.4 and incubated at 37 °C for 24 h. Prodrug disappearance was monitored using the developed HRMS methods.

Series [4] in a line: Metabolic stability in mouse plasma.
Description: Briefly, intestinal tissue was homogenized over ice via probe sonication with 1:9 tissue to potassium phosphate buffer (0.1 M) conditions. Prodrugs were spiked in plasma or tissue homogenate at 10 μM final concentration with 0.2% DMSO v/v and incubated in triplicate for 0 and 60 min time points. At each time point, 100 μL of the sample was precipitated with 300 μL of methanol containing internal standard (IS; losartan, 0.5 μM). Precipitated samples were vortexed (30 s) and centrifuged at 10000g for 10 min at 4 °C. After centrifugation, 100 μL of supernatant was aliquoted and submitted for analysis. Prodrug disappearance over time was monitored by liquid chromatography–mass spectrometry (LC–MS) through peak area ratios between the analyte and internal standard.
Chromatographic analysis was performed on a Dionex ultra-high-performance LC system coupled with a Q Exactive Focus Orbitrap mass spectrometer (Thermo Fisher Scientific Inc., Waltham, MA). Separation was achieved using an Agilent Eclipse Plus column (100 × 2.1 mm i.d.; maintained at 35 °C) packed with a 1.8 μm C18 stationary phase. The mobile phase used was composed of 0.1% formic acid in acetonitrile and 0.1% formic acid in water with gradient elution, starting with 2.5% organic phase (from 0 to 0.25 min) and linearly increasing to 99% (from 0.25 to 1.25 min) and re-equilibrating to 2.5% by 4 min. The total run time for each analyte was 5 min. Pumps were operated at a flow rate of 0.4 mL/min. The mass spectrometer controlled by Xcalibur software 4.0.27.13 (Thermo Scientific) was operated with an HESI ion source in positive ionization mode for all compounds. Compounds were identified in the full-scan mode with m/z ranging from 75 to 1125.

≈ marks a conversion by molar mass, not a printed value. Where “and” joins values, the source holds several entries; their conditions need not be identical. Identical values can stand only once. Bounds are passed on as bounds.

On to `CN(C)CC(=O)N[C@@H](Cc1ccccc1)C(=O)N[C@@H](CCC(=O)C=[N+]=[N-])C(=O)OC(C)(C)C` [Prodrug P11, tert-Butyl (S)-6-Diazo-2-((S)-2-(2-(dimethylamino)acetamido)-3-phenylpropanamido)-5-oxohexanoate], for which the “intestinal tissue levels of intact prodrug (below the limit of quantification)” value in series [1] (intestinal tissue) is less than 0.01 nmol/mL. In addition, in series [1] (tumor), the “AUC of intact prodrug, tumor” value came to 0.092 nmol·h/g. Also, the AUC at 6 h in series [1] (both sexes, C57BL/6/CES1–/–, mouse, plasma) worked out at 0.15 µM·h. In series [2] (30 min), the “fold increase in tumor FGAR compared with vehicle” value is recorded as 150 and the “fold rise in tumor glutamine compared with vehicle” value was roughly 2. Further, in series [2] (30 min post dose (Tmax)), the “tumor FGAR level” value worked out at 1040 ± 179 nmol/g and the tumor glutamine level was 1710 ± 173 nmol/g. Further, in series [3] (PBS buffer pH 7.4, 37 °C, 1 h), the solubility at 1 h was 8100 ± 1100 µg/mL (≈ 17.6 mM). Further, the “fold solubility improvement compared to DRP-104” value in series [3] (buffer pH 7.4) is 33 and > 30. In series [4] (CES1–/–, mouse, plasma), this molecule registered an amount remaining at 1 h, 10 µM of 93 ± 1%. For the same molecule, the Plasma in series [4] (supplementary CSV, unit not given, matches Table 1 % remaining at 1 h, in %) was found to be 93 ± 1.

Usually AUC stands for concentration integrated over time. What is called solubility is the concentration that dissolves in the medium under given conditions. The term fraction remaining denotes the share of the starting amount still present when the sample was taken. A low value points to a greater loss.
